Experimental findings from US10597366B2, “Aryl ethers and uses thereof” (Peloton Therapeutics, Inc., priority 2013, dated 2020) are described below.

The test system of the first assay is 786-O-Hif-Luc cells (luciferase gene driven by multiple HIF responsive elements). Put plainly: Luciferase Assay. It counts as cell-based. Conditions: 24 h, 786-O-Hif-Luc cells, about 24 hours; read-out: Mean Luciferease EC50. How it is done:
A pool of infected cells were then selected against 2 μg/mL of puromycin (P8833, Sigma) for 10 days followed by limited dilution to select single clones.
Each concentration was tested in triplicate. After about 24 hours, luciferase activity was determined using ONE-Glo Luciferase Assay Reagent (E6110, Promega) following the manufacturer's recommended procedure. EC50 were calculated by using Dotmatics software.
Regarding `O=S(=O)(c1ccc(Oc2cc(Cl)c[n+]([O-])c2)c2c1[C@H](O)C(F)(F)C2)C(F)(F)F` [Compound 260, (S)-3-Chloro-5-((2,2-difluoro-1-hydroxy-7-((trifluoromethyl)sulfonyl)-2,3-dihydro-1H-inden-4-yl)oxy)pyridine 1-oxide], the EC50 came to 0.17 µM.
As to `Cc1c(Oc2cc(F)cc(C#N)c2)ccc(S(=O)(=O)C(F)(F)F)c1CO` [Compound 146, 3-Fluoro-5-[3-(hydroxymethyl)-2-methyl-4-(trifluoromethylsulfonyl)phenoxy]benzonitrile], the EC50 amounted to 0.48 µM.
As to `CS(=O)(=O)c1ccc(Oc2cc(F)cc(C#N)c2)c2c1[C@H](O)C(F)(Cl)C2` (stereo partly drawn) [Compound 270, 3-(((1S)-2-chloro-2-fluoro-1-hydroxy-7-(methylsulfonyl)-2,3-dihydro-1H-inden-4-yl)oxy)-5-fluorobenzonitrile], the EC50 worked out at 0.1 µM.
As to `Cc1nnc(/C=C/c2c(S(=O)(=O)C(F)(F)F)ccc(Oc3cc(F)cc(C#N)c3)c2C)o1` [Compound 151, 3-Fluoro-5-[2-methyl-3-[(E)-2-(5-methyl-1,3,4-oxadiazol-2-yl)vinyl]-4-(trifluoromethylsulfonyl)phenoxy]benzonitrile], the EC50 came out at 8.9 µM.
In the case of `O=S(=O)(CF)c1ccc(Oc2cncc(Cl)c2)c2c1[C@H](O)C(F)(F)C2` [Compound 187, (S)-4-((5-Chloropyridin-3-yl)oxy)-2,2-difluoro-7-((fluoromethyl)sulfonyl)-2,3-dihydro-1H-inden-1-ol], the EC50 turned out to be 0.098 µM.
Regarding `O=Cc1c(S(=O)(=O)C(F)(F)F)ccc(Oc2cc(F)cc(Cl)c2)c1Br` [Compound 101, 2-Bromo-3-(3-chloro-5-fluorophenoxy)-6-((trifluoromethyl)sulfonyl)benzaldehyde], the EC50 is 0.32 µM.
Regarding `CS(=O)(=O)c1ccc(Oc2cc(F)cc(C#N)c2)c2c1[C@H](O)C(F)(F)[C@@H]2O` [Compound 312, 3-[(1S,3R)-2,2-difluoro-1,3-dihydroxy-7-methylsulfonyl-indan-4-yl]oxy-5-fluoro-benzonitrile], the EC50 amounted to 0.63 µM.
As to `CCOC(=O)/C=C/c1c(S(=O)(=O)C(F)(F)F)ccc(Oc2cc(F)cc(C#N)c2)c1C` [Compound 148, Ethyl (E)-3-(3-(3-cyano-5-fluorophenoxy)-2-methyl-6-((trifluoromethyl)sulfonyl)phenyl)acrylate], the EC50 stood at 5.6 µM.
Still for that read-out and setting: the figure for `N#Cc1cc(F)cc(Oc2ccc(S(=O)(=O)C(F)F)c(CO)c2Cl)c1` [Compound 42, 3-(2-Chloro-4-((difluoromethyl)sulfonyl)-3-(hydroxymethyl)phenoxy)-5-fluorobenzonitrile] is 0.45 µM.

Still in this assay, the particulars now being: 24 h, read-out: Mean Luciferease EC50.
Consider `CS(=O)(=O)c1ccc(Oc2cc(F)cc(C#N)c2)c2c1[C@H](O)[C@@H](F)C2` [Compound 271, 3-fluoro-5-(((1S,2S)-2-fluoro-1-hydroxy-7-(methylsulfonyl)-2,3-dihydro-1H-inden-4-yl)oxy)benzonitrile], for which the EC50 turned out to be 0.47 µM.
For the molecule `[2H]C([2H])([2H])S(=O)(=O)c1ccc(Oc2cc(F)cc(C#N)c2)c2c1[C@]([2H])(O)C(F)(F)C2` [Compound 229], the EC50 is 0.024 µM.

The test system of a further assay is HIF-2α HIS TAG-PASB Domain. Nature of the assay: HIF-2α Scintillation Proximity Assay (SPA). It is filed as binding. Conditions: compounds listed by structure and IUPAC name. How it is done:
The percent inhibition was determined and IC50 values were calculated using the Dotmatics system based on the following equation: % inhibition=[(high control sample)/(high control low control)]×100.
For orientation: In a scintillation proximity assay essentially only radioactivity close to the scintillant gives light.
The molecule `CS(=O)(=O)c1ccc(Oc2cc(C#N)cc(Oc3ccc(S(C)(=O)=O)c4c3CC(F)(F)[C@H]4O)c2)c2c1[C@H](O)C(F)(F)C2` [3,5-bis[[(1S)-2,2-difluoro-1-hydroxy-7-methylsulfonyl-indan-4-yl]oxy]benzonitrile] had an IC50 of more than 100 µM.
`C[C@H]1Cc2c(Oc3cc(F)cc(C#N)c3)ccc(S(C)(=O)=O)c2[C@H]1O` [3-fluoro-5-(((1S,2S)-1-hydroxy-2-methyl-7-(methylsulfonyl)-2,3-dihydro-1H-inden-4-yl)oxy)benzonitrile]: the IC50 is more than 100 µM.
Consider `N#Cc1cc(F)cc(Oc2ccc(S(=O)(=O)C(F)(F)F)c3c2C[C@@H](F)[C@@H]3N)c1` [3-[(1R,2R)-1-amino-2-fluoro-7-(trifluoromethylsulfonyl)indan-4-yl]oxy-5-fluoro-benzonitrile], for which the IC50 was more than 100 µM.
As to `Cc1c(Oc2cc(F)cc(C#N)c2)ccc(S(=O)(=O)C(F)(F)F)c1/C=C/C(=O)OCc1ccccc1` [benzyl (E)-3-[3-(3-cyano-5-fluoro-phenoxy)-2-methyl-6-(trifluoromethylsulfonyl)phenyl]prop-2-enoate], the IC50 is more than 100 µM.
Consider `CCCCOC(=O)/C=C/c1c(S(=O)(=O)C(F)(F)F)ccc(Oc2cc(F)cc(C#N)c2)c1C` [butyl (E)-3-[3-(3-cyano-5-fluoro-phenoxy)-2-methyl-6-(trifluoromethylsulfonyl)phenyl]prop-2-enoate], for which the IC50 was more than 100 µM.
Regarding `Cc1c(Oc2cc(F)cc(C#N)c2)ccc(S(=O)(=O)C(F)(F)F)c1/C=C/C(=O)O` [(E)-3-[3-(3-cyano-5-fluoro-phenoxy)-2-methyl-6-(trifluoromethylsulfonyl)phenyl]prop-2-enoic acid], the IC50 was more than 100 µM.
Same read-out and setting: the figure for `N#Cc1cc(F)cc(Oc2ccc(Cl)c3c2CCC3)c1` [3-(7-chloroindan-4-yl)oxy-5-fluoro-benzonitrile] is more than 100 µM.
The same measure, in the same setting: the figure for `O=S(=O)(c1ccc(Oc2cc(F)cc(Cl)c2)c2c1C1(CC2)OCCO1)C(F)F` [4′-(3-chloro-5-fluoro-phenoxy)-7′-(difluoromethylsulfonyl]spiro[1,3-dioxolane-2,1′-indane]] is more than 100 µM.
As for `CN(C)Cc1c(S(=O)(=O)C(F)F)ccc(Oc2cc(F)cc(Cl)c2)c1Cl` [1-[2-chloro-3-(3-chloro-5-fluoro-phenoxy)-6-(difluoromethylsulfonyl)phenyl]-N,N-dimethyl-methanamine], the IC50 was more than 100 µM.
Molecule `O=C(NO)c1c(S(=O)(=O)C(F)F)ccc(Oc2cc(F)cc(Cl)c2)c1Br` [2-bromo-3-(3-chloro-5-fluoro-phenoxy)-6-(difluoromethylsulfonyl)benzenecarbohydroxamic acid] registered an IC50 of more than 100 µM.
In turn, `Cc1c(Oc2cc(F)cc(C#N)c2)ccc(S(=O)(=O)C(F)(F)F)c1C(O)CO` (stereo not shown) [3-[3-(1,2-dihydroxyethyl)-2-methyl-4-(trifluoromethylsulfonyl)phenoxy]-5-fluoro-benzonitrile] had an IC50 of more than 100 µM.
In turn, `Cc1ccccc1Oc1ccc(S(=O)(=O)C(F)(F)F)cc1Br` [2-bromo-1-(2-methylphenoxy)-4-(trifluoromethylsulfonyl)benzene] displayed an IC50 of more than 100 µM.
In turn, `Cc1cc(Oc2cc(F)cc(C#N)c2)c2c(c1S(C)(=O)=O)C(O)CC2` (stereo not shown) [3-fluoro-5-(1-hydroxy-6-methyl-7-methylsulfonyl-indan-4-yl)oxy-benzonitrile] displayed an IC50 of more than 100 µM.
`NC(=O)c1c(S(=O)(=O)C(F)F)ccc(Oc2cc(F)cc(Cl)c2)c1Br` [2-bromo-3-(3-chloro-5-fluoro-phenoxy)-6-(difluoromethylsulfonyl)benzamide] had an IC50 of more than 100 µM.
Molecule `CC(C)(C)[S+]([O-])NC1c2c(S(C)(=O)=O)ccc(Oc3cc(F)cc(C#N)c3)c2CC1(F)F` (stereo not shown) [N-[4-(3-cyano-5-fluoro-phenoxy)-2,2-difluoro-7-methylsulfonyl-indan-1-yl]-2-methyl-propane-2-sulfinamide] displayed an IC50 of more than 100 µM.
`O=C(O)c1c(S(=O)(=O)C(F)F)ccc(Oc2cc(F)cc(Cl)c2)c1Br` [2-bromo-3-(3-chloro-5-fluoro-phenoxy)-6-(difluoromethylsulfonyl)benzoic acid] registered an IC50 of more than 100 µM.
In the case of `N#Cc1cccc(Oc2cc(F)cc(Cl)c2)c1Br` [2-bromo-3-(3-chloro-5-fluoro-phenoxy)benzonitrile], the IC50 was more than 100 µM.
The molecule `O=C(O)c1cc(S(=O)(=O)C(F)(F)F)ccc1Oc1cc(F)cc(Cl)c1` [2-(3-chloro-5-fluorophenoxy)-5-((trifluoromethyl)sulfonyl)benzoic acid] displayed an IC50 of more than 100 µM.
Molecule `CS(=O)(=O)c1ccc(Oc2cc(F)cc(F)c2)c2c1C(C#N)CC2` (stereo not shown) [4-(3,5-difluorophenoxy)-7-methylsulfonyl-indane-1-carbonitrile] displayed an IC50 of more than 100 µM.
Same read-out and setting: the figure for `NS(=O)(=O)c1cccc(Oc2cc(F)cc(Cl)c2)c1[N+](=O)[O-]` [3-(3-chloro-5-fluoro-phenoxy)-2-nitro-benzenesulfonamide] is more than 100 µM; for `CN(C)[S+]([O-])c1ccc(Oc2cc(F)cc(Cl)c2)c(Br)c1` (stereo not shown) [3-bromo-4-(3-chloro-5-fluoro-phenoxy)-N,N-dimethyl-benzenesulfinamide] it is more than 100 µM; for `N#Cc1cc(F)cc(Oc2ccc(/S(CF)=N/C(=O)C(F)(F)F)c3c2CC[C@H]3O)c1` (stereo partly drawn) [N-((R)-7-(3-cyano-5-fluorophenoxy)-3-hydroxy-2,3-dihydro-1H-inden-4-yl)(fluoromethyl)-λ^4-sulfanylidene)-2,2,2-trifluoroacetamide] it is more than 100 µM.
As for `Cn1cc(Oc2ccc(S(=O)(=O)C(F)(F)F)c3c2CCC3O)cn1` (stereo not shown) [4-(1-methylpyrazol-4-yl)oxy-7-(trifluoromethylsulfonyl)indan-1-ol], the IC50 was more than 100 µM.
Still for that read-out and setting: the figure for `O=C(NCCO)c1c(S(=O)(=O)C(F)F)ccc(Oc2cc(F)cc(Cl)c2)c1C(F)F` [3-(3-chloro-5-fluoro-phenoxy)-2-(difluoromethyl)-6-(difluoromethylsulfonyl)-N-(2-hydroxyethyl)benzamide] is more than 100 µM; for `O=C(O)c1cc(F)cc(Oc2ccc(S(=O)(=O)C(F)(F)F)cc2Br)c1` [3-[2-bromo-4-(trifluoromethylsulfonyl)phenoxy]-5-fluoro-benzoic acid] it is more than 100 µM.
As for `CS(=O)(=O)c1ccc(Oc2cc(F)cc(F)c2)c2c1C(NC(=O)c1ccc(F)cc1)C(F)(F)C2` (stereo not shown) [N-[4-(3,5-difluorophenoxy)-2,2-difluoro-7-methylsulfonyl-indan-1-yl]-4-fluoro-benzamide], the IC50 was more than 100 µM.

For orientation: EC50 means the concentration at which the effect is half-maximal. Usually IC50 stands for the concentration that gives 50% inhibition.
